In US20260327204A1, “DEGRADERS OF CYCLIN-DEPENDENT KINASE 12/13, COMPOSITIONS, AND USES THEREOF” (ZHEJIANG UNIVERSITY, priority 2023, published 2026):

How the values were obtained:
[1] = biological target: T1, CDK13 (Homo sapiens, UniProt Q14004); assay: Western blot degradation of CDK13 (Example 2); type: cell-based; set-up: degradation of CDK12/13 protein in leukemia cells KASUMI-1, MV4-11, and Jurkat; endogenous in cells; conditions: DC50 classes; cell line not given; read-out: CDK13 degradation Activity
T1 sequence (Q14004 whole entry): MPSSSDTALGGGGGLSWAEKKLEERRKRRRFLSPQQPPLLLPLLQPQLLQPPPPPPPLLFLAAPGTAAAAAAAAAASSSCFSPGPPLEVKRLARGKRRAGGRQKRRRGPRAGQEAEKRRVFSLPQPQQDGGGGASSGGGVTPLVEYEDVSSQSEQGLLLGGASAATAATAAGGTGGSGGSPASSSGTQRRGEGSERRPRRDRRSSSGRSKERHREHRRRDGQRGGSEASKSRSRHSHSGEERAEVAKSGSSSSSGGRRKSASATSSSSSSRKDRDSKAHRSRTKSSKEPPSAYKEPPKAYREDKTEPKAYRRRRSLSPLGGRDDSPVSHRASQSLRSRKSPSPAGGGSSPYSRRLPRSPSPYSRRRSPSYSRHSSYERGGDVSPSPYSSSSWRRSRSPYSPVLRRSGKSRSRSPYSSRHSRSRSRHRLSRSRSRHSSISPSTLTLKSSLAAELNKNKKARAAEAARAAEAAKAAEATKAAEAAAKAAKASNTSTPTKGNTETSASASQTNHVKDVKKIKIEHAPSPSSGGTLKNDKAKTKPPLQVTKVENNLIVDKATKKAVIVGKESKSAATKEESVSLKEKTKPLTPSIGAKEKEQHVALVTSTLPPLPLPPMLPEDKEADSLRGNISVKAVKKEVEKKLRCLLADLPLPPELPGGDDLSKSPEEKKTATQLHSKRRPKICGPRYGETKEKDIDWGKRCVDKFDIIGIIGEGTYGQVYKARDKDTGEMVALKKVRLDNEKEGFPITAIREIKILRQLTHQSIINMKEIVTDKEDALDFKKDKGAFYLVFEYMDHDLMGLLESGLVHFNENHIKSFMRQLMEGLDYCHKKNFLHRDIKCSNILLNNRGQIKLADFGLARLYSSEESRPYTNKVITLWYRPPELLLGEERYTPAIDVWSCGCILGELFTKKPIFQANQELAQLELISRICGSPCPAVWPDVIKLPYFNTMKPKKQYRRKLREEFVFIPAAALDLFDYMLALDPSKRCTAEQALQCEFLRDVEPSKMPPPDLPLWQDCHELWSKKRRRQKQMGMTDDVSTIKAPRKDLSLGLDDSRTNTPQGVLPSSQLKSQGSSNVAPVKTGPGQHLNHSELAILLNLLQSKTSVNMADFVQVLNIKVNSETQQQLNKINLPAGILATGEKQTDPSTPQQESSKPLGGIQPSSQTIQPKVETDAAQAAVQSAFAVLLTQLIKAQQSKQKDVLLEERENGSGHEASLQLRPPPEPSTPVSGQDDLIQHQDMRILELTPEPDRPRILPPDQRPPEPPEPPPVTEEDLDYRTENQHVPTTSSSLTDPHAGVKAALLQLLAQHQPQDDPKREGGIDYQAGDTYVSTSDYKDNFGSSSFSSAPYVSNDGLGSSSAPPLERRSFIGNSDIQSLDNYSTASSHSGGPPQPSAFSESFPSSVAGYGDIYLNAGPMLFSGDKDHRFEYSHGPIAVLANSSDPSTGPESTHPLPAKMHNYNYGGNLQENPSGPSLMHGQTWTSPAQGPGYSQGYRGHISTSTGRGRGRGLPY
T1 sequence (O75909 whole entry partner): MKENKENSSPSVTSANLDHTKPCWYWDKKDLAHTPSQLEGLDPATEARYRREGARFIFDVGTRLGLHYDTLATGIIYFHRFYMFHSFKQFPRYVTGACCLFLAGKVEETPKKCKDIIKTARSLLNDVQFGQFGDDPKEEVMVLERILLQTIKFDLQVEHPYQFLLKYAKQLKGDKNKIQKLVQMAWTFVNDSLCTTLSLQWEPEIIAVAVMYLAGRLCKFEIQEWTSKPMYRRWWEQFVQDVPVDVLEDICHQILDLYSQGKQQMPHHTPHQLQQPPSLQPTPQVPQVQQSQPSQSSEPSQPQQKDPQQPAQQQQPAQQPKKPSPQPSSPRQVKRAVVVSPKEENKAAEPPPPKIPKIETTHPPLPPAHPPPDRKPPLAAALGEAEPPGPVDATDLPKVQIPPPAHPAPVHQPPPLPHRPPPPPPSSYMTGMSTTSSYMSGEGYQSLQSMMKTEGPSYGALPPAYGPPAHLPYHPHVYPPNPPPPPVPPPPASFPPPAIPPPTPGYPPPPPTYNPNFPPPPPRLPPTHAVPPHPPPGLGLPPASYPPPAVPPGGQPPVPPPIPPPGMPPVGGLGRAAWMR

[2] = Liver microsome stability, monkey; type: in vitro ADME; conditions: liver microsomes
Procedure: (§1) • Compounds: Ketanserin, Formula 18, Formula 45 • Liver microsomes: Human liver microsomes (purchased from BioreclamationIVT); Dog, mouse, rat, and monkey liver microsomes (purchased from Xenotech)
(§2) Preparation of 500 μM compound solution: Add 5 μL of 10 mM compound solution and 95 μL of DMSO to an EP tube.
(§3) Preparation of solution containing 0.75 mg/mL liver microsomes and 1.5 μM compound: Add 1.5 μL of the 500 μM compound solution, 18.75 μL of the 20 mg/mL liver microsome solution, and 479.75 μL of PBS to an EP tube.
(§4) Preparation of 6 mM NADPH solution: Dissolve 5 mg of NADPH in 1 mL of PBS solution.
(§5) Add 30 μL of the solution containing 0.75 mg/mL liver microsomes and a concentration gradient of the compound to a 96-well plate. Add 15 μL of the 6 mM NADPH solution and 150 μL of a 1:1 acetonitrile:methanol solution containing an internal standard (IS). Vortex and centrifuge at 6,000 rpm for 10 min. 80 μL of the supernatant from each concentration sample is transferred to a 96-well plate containing 140 μL of pure water for LC/MS detection (injection volume of […]). […]
(§6) 80 μL of the supernatant from each well is transferred to a 96-well plate containing 140 μL of pure water for LC/MS detection (injection volume of […]). The compound concentration value is determined by comparing the corresponding mass spectrometry peak area with the standard curve. […]

[3] = Liver microsome stability, human; type: in vitro ADME; conditions: liver microsomes
Procedure: as §1, §2, §3, §4, §5, §6

[4] = Liver microsome stability, rat; type: in vitro ADME; conditions: liver microsomes
Procedure: as §1, §2, §3, §4, §5, §6

[5] = biological target: T2, CDK12 (Homo sapiens, UniProt Q9NYV4); assay: Western blot degradation of CDK12 (Example 2); type: cell-based; set-up: degradation of CDK12/13 protein in leukemia cells KASUMI-1, MV4-11, and Jurkat; endogenous in cells; conditions: DC50 classes; cell line not given; read-out: CDK12 degradation Activity
T2 sequence (Q9NYV4 whole entry): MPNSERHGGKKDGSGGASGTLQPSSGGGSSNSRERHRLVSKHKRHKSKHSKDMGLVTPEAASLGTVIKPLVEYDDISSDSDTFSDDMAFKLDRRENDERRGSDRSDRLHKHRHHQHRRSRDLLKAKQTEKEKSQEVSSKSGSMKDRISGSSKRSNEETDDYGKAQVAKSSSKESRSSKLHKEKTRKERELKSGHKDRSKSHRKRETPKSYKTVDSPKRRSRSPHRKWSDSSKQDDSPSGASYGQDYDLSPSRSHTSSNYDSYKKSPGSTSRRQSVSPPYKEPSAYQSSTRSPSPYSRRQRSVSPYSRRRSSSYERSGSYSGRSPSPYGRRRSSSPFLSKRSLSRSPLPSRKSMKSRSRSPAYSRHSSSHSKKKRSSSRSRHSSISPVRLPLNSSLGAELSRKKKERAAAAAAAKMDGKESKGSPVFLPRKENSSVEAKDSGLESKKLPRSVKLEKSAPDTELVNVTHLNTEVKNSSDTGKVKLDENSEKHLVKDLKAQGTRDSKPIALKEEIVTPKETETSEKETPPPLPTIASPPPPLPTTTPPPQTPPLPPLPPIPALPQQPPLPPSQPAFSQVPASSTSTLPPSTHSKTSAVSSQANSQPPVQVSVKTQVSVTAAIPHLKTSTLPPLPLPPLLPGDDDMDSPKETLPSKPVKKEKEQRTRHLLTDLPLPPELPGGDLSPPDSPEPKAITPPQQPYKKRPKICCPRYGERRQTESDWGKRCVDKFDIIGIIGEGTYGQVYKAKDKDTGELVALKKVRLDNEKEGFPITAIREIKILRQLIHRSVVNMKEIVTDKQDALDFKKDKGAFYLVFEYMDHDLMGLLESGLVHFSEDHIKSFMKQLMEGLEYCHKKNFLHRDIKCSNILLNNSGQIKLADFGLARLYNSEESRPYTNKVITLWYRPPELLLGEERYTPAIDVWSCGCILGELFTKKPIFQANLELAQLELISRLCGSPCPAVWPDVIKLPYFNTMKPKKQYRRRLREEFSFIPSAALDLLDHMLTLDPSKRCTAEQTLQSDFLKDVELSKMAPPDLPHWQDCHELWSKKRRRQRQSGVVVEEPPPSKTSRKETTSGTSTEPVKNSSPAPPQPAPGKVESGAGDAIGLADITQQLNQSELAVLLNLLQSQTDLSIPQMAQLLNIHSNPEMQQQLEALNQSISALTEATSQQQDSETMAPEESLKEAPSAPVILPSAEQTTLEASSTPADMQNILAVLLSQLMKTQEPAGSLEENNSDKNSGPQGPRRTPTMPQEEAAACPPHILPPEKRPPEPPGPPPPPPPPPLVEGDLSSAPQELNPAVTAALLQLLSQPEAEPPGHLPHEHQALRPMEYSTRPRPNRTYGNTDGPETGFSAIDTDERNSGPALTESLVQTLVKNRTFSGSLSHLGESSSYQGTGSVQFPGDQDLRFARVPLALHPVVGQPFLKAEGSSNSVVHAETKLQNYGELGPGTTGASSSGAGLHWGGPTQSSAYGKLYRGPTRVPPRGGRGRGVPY
T2 sequence (O75909 whole entry partner): as the sequence (O75909 whole entry partner) above
How it was run: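 Leukemia lines KASUMI-1, MV4-11, Jurkat, plus MDA-MB-231 for a concentration series, treated at 0.01–3 μM for 3–48 h at 37 °C against DMSO control. Lysates in 4% SDS; CDK12/13 band intensity normalized to β-Actin or GAPDH to give degradation rate.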

[6] = Liver microsome stability, dog; type: in vitro ADME; conditions: liver microsomes
Procedure: as §1, §2, §3, §4, §5, §6

[7] = tested on: serine 2 in the C-terminal domain of RNA polymerase II (CTD-pSer2); assay: Phosphorylation of serine 2 in the C-terminal domain of RNA polymerase II, Western blot; type: cell-based; conditions: MDA-MB-231, 24 h, concentration gradient
Procedure: Protein Western blot was used to determine the degradation of CDK12/13 protein in colorectal cancer cells HCT-116, breast cancer cells MDA-MB-231, and leukemia cells Jurkat. The two compounds with the best degradation effects were further validated for their ability to degrade CDK12/13 protein in MDA-MB-231 cells using a concentration gradient. The effect of the compounds on the phosphorylation of serine 2 in the C-terminal domain of RNA polymerase II (CTD-pSer2) was also measured.
(§7) (3) Compound treatment: The 50 mM compound stock solution was diluted with cell culture medium to a final concentration of 0.01 μM-3 μM. Cells were incubated in a 37 °C incubator with 5% CO2 for 3 h-48 h. The DMSO group served as the negative control.

[8] = tested on: CCNK; assay: Reversal of CCNK degradation by proteasome inhibitor MG132, Western blot; type: cell-based; conditions: MDA-MB-231, 24 h treatment, MG132 added 12 h before sample collection
Procedure: (§8) • Cell lines: HCT-116, Jurkat, or MDA-MB-231 • Culture medium: DMEM/RIPM-1640+10% Hyclone serum • Compound dissolution method: The compounds (small molecule conjugates as shown in Formulae 101-147, MG132) were dissolved in DMSO to prepare a 50 mM stock solution and then diluted to the corresponding concentrations.
as §7
In the figures, CDK12, CDK13, and CCNK are the target proteins under study, and β-Actin and GAPDH are the internal reference proteins. Internal reference proteins are used to indicate the total protein amount in each experimental group for quantitative analysis.

[9] = biological target: T1, CDK13; assay: Western blot degradation of CDK13 (Example 3); type: cell-based; set-up: degradation of CDK12/13 protein in leukemia cells KASUMI-1, MV4-11, and Jurkat; endogenous in cells
[10] = biological target: T2, CDK12; assay: Reversal of CDK12 degradation by proteasome inhibitor MG132, Western blot; type: cell-based; set-up: endogenous in cells; conditions: MDA-MB-231, 24 h treatment, MG132 added 12 h before sample collection
Procedure: as §8, §7

[11] = biological target: T1, CDK13; assay: Reversal of CDK13 degradation by proteasome inhibitor MG132, Western blot; type: cell-based; set-up: endogenous in cells; conditions: MDA-MB-231, 24 h treatment, MG132 added 12 h before sample collection
Procedure: as §8, §7

[12] = biological target: T2, CDK12; assay: Western blot degradation of CDK12 (Example 3); type: cell-based; set-up: degradation of CDK12/13 protein in leukemia cells KASUMI-1, MV4-11, and Jurkat; endogenous in cells
[13] = DC50 classes, cell line not given, read-out: CDK13 degradation Activity
[14] = DC50 classes, cell line not given, read-out: CDK12 degradation Activity

Work on `Cc1ncsc1-c1ccc([C@H](C)NC(=O)[C@@H]2C[C@@H](O)CN2C(=O)[C@@H](NC(=O)CN2CCN(c3ccc(-c4ccc(N(C(=O)NCc5ccccc5)[C@H]5CC[C@H](Nc6ccc(C#N)cn6)CC5)cc4)cn3)CC2)C(C)(C)C)cc1` [Formula 18] yielded a DC50 [1] of under 100 nM, a half-life [2] of over 45 min and a half-life [3] of over 45 min. For the same molecule, the half-life [4] was over 45 min, the DC50 [5] was under 100 nM and the half-life [6] was over 45 min.

With `N#Cc1ccc(NC2CCC(N(C(=O)NCc3ccccc3)c3ccc(-c4ccc(=O)n(CCOCCOCCNc5cccc6c5C(=O)N(C5CCC(=O)NC5=O)C6=O)c4)cc3)CC2)nc1` (stereo not drawn) [Formula 47] the DC50 [1] was 1000 to 3000 nM, the DC50 [5] was 500 to 1000 nM and the “phosphorylation of serine 2 in the C-terminal domain of RNA polymerase II (CTD-pSer2)” value [7] was “can dose-dependently downregulate the phosphorylation of serine 2”.

With `CC(=O)N(c1ccc(-c2ccc(N3CCN(c4ccc5c(c4)C(=O)N(C4CCC(=O)NC4=O)C5=O)CC3)nc2)cc1)[C@H]1CC[C@H](Nc2ncc3ccccc3n2)CC1` (stereo partly drawn) [Formula 103, N-(4-(6-(4-(2-(2,6-dioxopiperidin-3-yl)-1,3-dioxoisoindolin-5-yl)piperazin-1-yl)pyridin-3-yl)phenyl)-N-((1R,4R)-4-(quinazolin-2-ylamino)cyclohexyl)acetamide] the “reversal of CCNK degradation by MG132” value [8] was “can reverse the degradation of CDK12/13 and CCNK”, the DC50 [9, 13] was under 100 nM and the DC50 ([9]; HCT116, colorectal cancer cells, read-out: CDK13 DC50) was 19 nM. The DC50 ([9]; KASUMI-1, leukemia cells, read-out: CDK13 DC50) was 18 nM, the DC50 ([9]; MDA-MB-231, breast cancer cells, read-out: CDK13 DC50) was 30 nM and the “reversal of CDK12 degradation by MG132” value [10] was “can reverse the degradation of CDK12/13 and CCNK”. For the same molecule, the “reversal of CDK13 degradation by MG132” value [11] was “can reverse the degradation of CDK12/13 and CCNK”, the DC50 [12, 14] was under 100 nM and the DC50 ([12]; HCT116, colorectal cancer cells, read-out: CDK12 DC50) was 22 nM. The DC50 ([12]; KASUMI-1, leukemia cells, read-out: CDK12 DC50) was 15 nM and the DC50 ([12]; MDA-MB-231, breast cancer cells, read-out: CDK12 DC50) was 16 nM.

Work on `CC(=O)N(c1ccc(-c2cnc(N3CCN(c4cnn([C@H](C(=O)N5C[C@H](O)C[C@H]5C(=O)N[C@@H](C)c5ccc(-c6scnc6C)cc5)C(C)C)c4)CC3)nc2)cc1)[C@H]1CC[C@H](Nc2ncc3ccccc3n2)CC1` [Formula 154, (2S,4R)-4-hydroxy-1-((S)-3-methyl-2-(4-(4-(5-(4-(N-((1R,4R)-4-(quinazolin-2-ylamino)cyclohexyl)acetamido)phenyl)pyrimidin-2-yl)piperazin-1-yl)-1H-pyrazol-1-yl)butanoyl)-N—((S)-1-(4-(4-methylthiazol-5-yl)phenyl)ethyl)pyrrolidine-2-carboxamide] yielded a DC50 [9, 13] of under 100 nM and a DC50 [12, 14] of 100 to 500 nM.

With `CC(=O)N(c1ccc(-c2cnc(N3CCN(c4ccc5c(c4)C(=O)N(C4CCC(=O)NC4=O)C5=O)CC3)nc2)cc1)[C@H]1CC[C@H](Nc2ncc3ccccc3n2)CC1` (stereo partly drawn) [Formula 158] the DC50 [9, 13] was under 100 nM and the DC50 [12, 14] was under 100 nM.
